From patent US5789384A, “Pharmaceutical dipeptide compositions and methods of use thereof” (priority 1995, dated 1998)

Conditions: in vivo

CC[C@H](C)[C@H](N)C(=O)N[C@@H](Cc1c[nH]c2ccccc12)C(=O)O [Ile-Trp, L-Ile-L-Trp]
side effects from the use of the dipeptide: not found any significant side effects
